Data: PMC12724303 (Journal of Virology, 2025)
Like-named read-outs stand apart in the source and are kept apart here.

How the values were obtained:
SARS-CoV-2 Wuhan variant [1] = format: cell-based
SARS-CoV-2 Delta variant = format: cell-based
SARS-CoV-2 Wuhan variant [2] = assay: microbe, parasite or virus in culture; format: cell-based
[3] = test system: SARS-CoV-2 virion-associated aminophospholipids (procoagulant activity); format: biochemical
SARS-CoV-2 Beta variant = format: cell-based
[4] = test system: SARS-CoV-2 viral particles; format: cell-based
[5] = test system: SARS-CoV-2 Wuhan variant in Vero E6 cells; format: cell-based
[6] = test system: SARS-CoV-2 Wuhan variant in Vero E6/TMPRSS2 cells; format: cell-based
SARS-CoV-2 Wuhan variant [7] = format: cell-based; remark: listed apart in the source
[8] = test system: SARS-CoV-2 Wuhan variant particles (N protein and spike protein)
[9] = test system: SARS-CoV-2 Wuhan variant virions

Compound | infection inhibitory activity (cytopathic effect) (SARS-CoV-2 Wuhan variant [1]) | infection inhibitory activity (cytopathic effect) (SARS-CoV-2 Delta variant) | selectivity index (SI = CC50/IC50) (SARS-CoV-2 Wuhan variant [2]) | IC50 (SARS-CoV-2 Wuhan variant [2]; Severe acute respiratory syndrome coronavirus 2, VeroE6/TMPRSS2, 72 h, read-out: IC50 against SARS-CoV-2 infection) [mM] | effect on clotting time ([3]; 5 mM) | concentration at the highest dilution completely inhibiting the cytopathic effect (SARS-CoV-2 Wuhan variant [1]) [µM] | highest dilution completely inhibiting the cytopathic effect (SARS-CoV-2 Wuhan variant [1]) [fold] | concentration at the highest dilution completely inhibiting the cytopathic effect (SARS-CoV-2 Beta variant) [µM] | highest dilution completely inhibiting the cytopathic effect (SARS-CoV-2 Beta variant) [fold] | concentration at the highest dilution completely inhibiting the cytopathic effect (SARS-CoV-2 Delta variant) [µM] | highest dilution completely inhibiting the cytopathic effect (SARS-CoV-2 Delta variant) [fold] | reduction of infectivity by pretreatment of viral particles [4] | effect on clotting time [3] | effect on clotting time ([3]; 10 mM, 37°C) | reduction in TCID50/mL compared with the control [5] | infectivity of treated virus [6] | intracellular SARS-CoV-2 gRNA level (viral entry) (SARS-CoV-2 Wuhan variant [7]) | viral entry (SARS-CoV-2 Wuhan variant [7]) | band intensities of N protein and spike protein [8] | binding of viral particles to anti-RBD antibody-coated plate (RNA quantification) [9]
hydroxypropyl-α-cyclodextrin [HP-α-CyD] | showed infection inhibitory activity |  |  |  |  |  |  |  |  |  |  |  |  |  |  |  |  |  |  | 
COC[C@H]1O[C@@H]2O[C@H]3[C@H](O)[C@@H](OC)[C@@H](O[C@H]4[C@H](O)[C@@H](OC)[C@@H](O[C@H]5[C@H](O)[C@@H](OC)[C@@H](O[C@H]6[C@H](O)[C@@H](OC)[C@@H](O[C@H]7[C@H](O)[C@@H](OC)[C@@H](O[C@H]8[C@H](O)[C@@H](OC)[C@@H](O[C@H]1[C@H](O)[C@H]2OC)O[C@@H]8COC)O[C@@H]7COC)O[C@@H]6COC)O[C@@H]5COC)O[C@@H]4COC)O[C@@H]3COC [DM-β-CyD, 2,6-di-O-methyl-β-cyclodextrin] | showed infection inhibitory activity | showed infection inhibitory activity | 4.04 | 1.42 | no effect on clotting time |  |  |  |  |  |  |  |  |  |  |  |  |  |  | 
COC[C@H]1O[C@@H]2O[C@H]3[C@H](OC(C)=O)[C@@H](OC)[C@@H](O[C@H]4[C@H](OC(C)=O)[C@@H](OC)[C@@H](O[C@H]5[C@H](OC(C)=O)[C@@H](OC)[C@@H](O[C@H]6[C@H](OC(C)=O)[C@@H](OC)[C@@H](O[C@H]7[C@H](OC(C)=O)[C@@H](OC)[C@@H](O[C@H]8[C@H](OC(C)=O)[C@@H](OC)[C@@H](O[C@H]1[C@H](OC(C)=O)[C@H]2OC)O[C@@H]8COC)O[C@@H]7COC)O[C@@H]6COC)O[C@@H]5COC)O[C@@H]4COC)O[C@@H]3COC [DMA-β-CyD] | showed infection inhibitory activity | showed infection inhibitory activity |  |  |  | 156 | 64 | 625 | 16 | 156 | 64 | 2.25–2.67 | insufficient recovery of clotting time | markedly prolonged clotting time | 2.22 | 7.34 × 10^3 TCID50/mL | decreased in a DMA-β-CyD-concentration-dependent manner | inhibited the entry of these particles | marked reduction in the band intensities of both proteins | concentration-dependent decrease in binding
